Measurements published in ChEMBL document CHEMBL1139311, “Synthesis of biflavones having a 6-O-7'' linkage and effects on cyclooxygenase-2 and inducible nitric oxide synthase” (Bioorg Med Chem Lett, 2009).

Experiments:
Assay type in all cases: cell-based
[1] = molecular target: T1, Prostaglandin G/H synthase 2 (Mus musculus, UniProt Q05769); assay: Inhibition of COX2-mediated PGE2 production in LPS-stimulated mouse RAW264.7 cells by ELISA
T1 sequence (Q05769 whole entry): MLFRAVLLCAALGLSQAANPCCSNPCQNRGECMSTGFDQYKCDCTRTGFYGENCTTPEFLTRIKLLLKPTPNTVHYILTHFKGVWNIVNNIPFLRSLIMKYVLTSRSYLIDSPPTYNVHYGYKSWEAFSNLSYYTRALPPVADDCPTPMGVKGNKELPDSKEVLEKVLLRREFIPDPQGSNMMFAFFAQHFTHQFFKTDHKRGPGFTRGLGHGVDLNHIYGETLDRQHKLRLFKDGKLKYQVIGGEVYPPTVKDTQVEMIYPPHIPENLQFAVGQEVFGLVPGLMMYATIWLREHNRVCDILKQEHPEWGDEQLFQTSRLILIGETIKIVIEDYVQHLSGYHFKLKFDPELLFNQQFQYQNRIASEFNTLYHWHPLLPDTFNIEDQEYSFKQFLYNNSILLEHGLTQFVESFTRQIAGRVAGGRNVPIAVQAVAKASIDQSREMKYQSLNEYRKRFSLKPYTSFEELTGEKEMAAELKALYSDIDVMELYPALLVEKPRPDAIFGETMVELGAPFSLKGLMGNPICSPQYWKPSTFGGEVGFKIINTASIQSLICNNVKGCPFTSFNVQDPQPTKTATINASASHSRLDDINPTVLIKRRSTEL

[2] = molecular target: T2, Nitric oxide synthase, inducible (Mus musculus, UniProt P29477); assay: Inhibition of iNOS-mediated NO production in LPS-stimulated mouse RAW264.7 cells by Griess method
T2 sequence (P29477 whole entry): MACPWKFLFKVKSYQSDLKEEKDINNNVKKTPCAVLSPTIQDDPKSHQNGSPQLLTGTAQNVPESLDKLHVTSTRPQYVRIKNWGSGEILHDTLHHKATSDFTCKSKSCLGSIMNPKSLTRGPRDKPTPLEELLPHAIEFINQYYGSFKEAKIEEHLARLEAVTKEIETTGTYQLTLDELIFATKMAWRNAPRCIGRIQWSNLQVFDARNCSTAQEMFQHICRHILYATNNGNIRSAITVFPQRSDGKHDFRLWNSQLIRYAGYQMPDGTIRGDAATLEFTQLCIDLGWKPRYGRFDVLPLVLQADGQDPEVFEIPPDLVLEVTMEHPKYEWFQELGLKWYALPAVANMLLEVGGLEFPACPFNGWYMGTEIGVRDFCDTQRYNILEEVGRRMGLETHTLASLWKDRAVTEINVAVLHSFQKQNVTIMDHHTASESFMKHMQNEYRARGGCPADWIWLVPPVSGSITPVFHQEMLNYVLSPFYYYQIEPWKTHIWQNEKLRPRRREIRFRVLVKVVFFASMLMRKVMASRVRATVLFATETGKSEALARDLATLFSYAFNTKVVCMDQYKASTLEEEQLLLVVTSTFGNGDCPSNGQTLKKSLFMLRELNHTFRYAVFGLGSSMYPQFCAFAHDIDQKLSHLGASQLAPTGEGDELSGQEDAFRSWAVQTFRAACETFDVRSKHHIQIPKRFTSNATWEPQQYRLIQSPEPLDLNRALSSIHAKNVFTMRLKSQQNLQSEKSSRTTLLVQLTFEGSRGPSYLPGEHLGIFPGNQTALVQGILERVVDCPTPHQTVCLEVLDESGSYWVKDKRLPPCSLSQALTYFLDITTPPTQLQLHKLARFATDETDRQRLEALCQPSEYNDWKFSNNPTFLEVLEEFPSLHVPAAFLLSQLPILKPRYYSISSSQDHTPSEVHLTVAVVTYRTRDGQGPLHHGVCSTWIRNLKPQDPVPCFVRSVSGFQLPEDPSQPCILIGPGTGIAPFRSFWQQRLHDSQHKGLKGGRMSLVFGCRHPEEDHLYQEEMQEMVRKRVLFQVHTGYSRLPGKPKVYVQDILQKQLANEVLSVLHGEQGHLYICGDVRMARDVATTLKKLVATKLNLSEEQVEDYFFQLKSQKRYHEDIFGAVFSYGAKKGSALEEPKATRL

[3] = molecular target: T3, Nitric oxide synthase, inducible (Mus musculus) (UniProt P29477); assay: Inhibition of iNOS-mediated NO production in LPS-stimulated mouse RAW264.7 cells at […]
T3 sequence (whole entry): T2 sequence (P29477 whole entry)

IC50 [1] | IC50 [2] | inhibition [3] | Structure (SMILES)
> 50 µM |  |  | O=c1cc(-c2ccc(O)cc2)oc2cc(Oc3ccc4oc(-c5ccc(O)cc5)cc(=O)c4c3)ccc12
10 µM | 10 µM |  | O=c1cc(-c2ccc(O)cc2O)oc2cc(Oc3ccc4oc(-c5ccc(O)cc5O)cc(=O)c4c3)ccc12
50 µM | > 50 µM |  | COc1ccc(-c2cc(=O)c3ccc(Oc4ccc5oc(-c6ccc(OC)cc6OC)cc(=O)c5c4)cc3o2)c(OC)c1
> 50 µM | > 50 µM |  | COc1ccc(-c2cc(=O)c3cc(Oc4ccc5c(=O)cc(-c6ccc(OC)cc6OC)oc5c4)ccc3o2)cc1
> 50 µM | 50 µM |  | O=c1cc(-c2ccc(O)cc2)oc2ccc(Oc3ccc4c(=O)cc(-c5ccc(O)cc5O)oc4c3)cc12
> 50 µM | 10 µM |  | O=c1cc(-c2ccc(O)cc2)oc2cc(Oc3ccc4oc(-c5ccccc5O)cc(=O)c4c3)ccc12
 |  | 92.5% | CC1CCN=C(N)S1 (stereo not drawn)
> 50 µM |  |  | O=c1cc(-c2ccccc2)oc2cc(Oc3ccc4oc(-c5ccc(O)cc5O)cc(=O)c4c3)ccc12
2 µM |  |  | COc1ccc(-c2cc(=O)c3cc(Oc4ccc5c(=O)cc(-c6ccccc6)oc5c4)ccc3o2)c(OC)c1
> 50 µM |  |  | COc1ccccc1-c1cc(=O)c2cc(Oc3ccc4c(=O)cc(-c5ccccc5)oc4c3)ccc2o1
> 50 µM | > 50 µM |  | O=c1cc(-c2ccc(O)cc2)oc2cc(Oc3ccc4oc(-c5ccc(O)cc5O)cc(=O)c4c3)ccc12
> 50 µM |  |  | O=c1cc(-c2ccccc2)oc2cc(Oc3ccc4oc(-c5ccccc5O)cc(=O)c4c3)ccc12
2 µM |  |  | COc1ccc(-c2cc(=O)c3cc(Oc4ccc5c(=O)cc(-c6ccccc6)oc5c4)ccc3o2)cc1
> 50 µM | > 50 µM |  | COc1ccc(-c2cc(=O)c3ccc(Oc4ccc5oc(-c6ccc(OC)cc6OC)cc(=O)c5c4)cc3o2)cc1
< 2 µM | > 50 µM |  | O=c1cc(-c2ccccc2)oc2cc(Oc3ccc4oc(-c5ccccc5)cc(=O)c4c3)ccc12
